How the values were obtained:
Format in all cases: in vivo
[1] = tested on: redroot pigweed (Amaranthus retroflexus); assay: Test G Post-Emergence Protocol; conditions: Amaranthus retroflexus, post-emergence, 312 h, read-out: Pigweed, Redroot damage rating
In short: (§1)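 Damage was rated 13 days after treatment from 0 (none) to 100 (plant killed). Compound was applied as a spray at 15.625, 62.5 or 250 g/ha in 50:50 acetone/water containing 0.5% Tween 20, onto 8-day-old potted plants kept in a glasshouse (24/16 °C, 14 h light, 65% humidity).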

[2] = tested on: barnyardgrass (Echinochloa crus-galli); assay: Test G Post-Emergence Protocol; conditions: Echinochloa crus-galli, post-emergence, 312 h, read-out: Barnyardgrass damage rating
In short: as §1

[3] = tested on: ivy-leaved morning glory (Ipomoea hederacea); assay: Test G Post-Emergence Protocol; conditions: Ipomoea, post-emergence, 312 h, read-out: Morningglory, Ivy-leaved damage rating
In short: as §1

[4] = tested on: velvetleaf (Abutilon theophrasti); assay: Test G Post-Emergence Protocol; conditions: Abutilon theophrasti, post-emergence, 312 h, read-out: Velvetleaf damage rating
In short: as §1

[5] = tested on: corn (Zea mays); assay: Test G Post-Emergence Protocol; conditions: Zea mays, post-emergence, 312 h, read-out: Corn damage rating
In short: as §1

[6] = tested on: giant foxtail (Setaria faberi); assay: Test G Post-Emergence Protocol; conditions: Setaria faberi, post-emergence, 312 h, read-out: Foxtail, Giant damage rating
In short: as §1

[7] = tested on: redroot pigweed (Amaranthus retroflexus); assay: Test G Pre-Emergence Protocol; conditions: Amaranthus retroflexus, pre-emergence, 312 h, evaluated after 13 days
In short: (§2)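 Scores are visual damage ratings from 0 (no damage) to 100 (total plant kill), taken 13 days after treatment. Compound was sprayed one day post-sowing at 15.625, 62.5 or 250 g/ha in 50:50 acetone/water with 0.5% Tween 20.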

[8] = tested on: barnyardgrass (Echinochloa crus-galli); assay: Test G Pre-Emergence Protocol; conditions: Echinochloa crus-galli, pre-emergence, 312 h, evaluated after 13 days
In short: as §2

[9] = tested on: ivy-leaved morning glory (Ipomoea hederacea); assay: Test G Pre-Emergence Protocol; conditions: Ipomoea, pre-emergence, 312 h, evaluated after 13 days
In short: as §2

[10] = tested on: velvetleaf (Abutilon theophrasti); assay: Test G Pre-Emergence Protocol; conditions: Abutilon theophrasti, pre-emergence, 312 h, evaluated after 13 days
In short: as §2

[11] = tested on: corn (Zea mays); assay: Test G Pre-Emergence Protocol; conditions: Zea mays, pre-emergence, 312 h, evaluated after 13 days
In short: as §2

[12] = tested on: giant foxtail (Setaria faberi); assay: Test G Pre-Emergence Protocol; conditions: Setaria faberi, pre-emergence, 312 h, evaluated after 13 days
In short: as §2

[13] = 15.625 g ai/ha, evaluated after 13 days (100=total damage to plant; 0=no damage to plant)
[14] = 62.5 g ai/ha, evaluated after 13 days, 100=total damage to plant, 0=no damage to plant
[15] = 250 g ai/ha, evaluated after 13 days, 100=total damage to plant, 0=no damage to plant

CN1C[C@H](c2ccc(C(F)(F)F)c(C(F)(F)F)c2)[C@@H](C(=O)Nc2ccccc2S(C)(=O)=O)C1=O (racemic) [Compound 1799]
pest or weed control at 15.625 g/ha [1, 13]: 0%
pest or weed control at 62.5 g/ha [1, 14]: 60%
pest or weed control at 250 g/ha [1, 15]: 70%
pest or weed control at 15.625 g/ha [2, 13]: 0%
pest or weed control at 62.5 g/ha [2, 14]: 60%
pest or weed control at 250 g/ha [2, 15]: 70%
pest or weed control at 15.625 g/ha [3, 13]: 10%
pest or weed control at 62.5 g/ha [3, 14]: 60%
pest or weed control at 250 g/ha [3, 15]: 30%
pest or weed control at 15.625 g/ha [4, 13]: 0%
pest or weed control at 62.5 g/ha [4, 14]: 20%
pest or weed control at 250 g/ha [4, 15]: 10%
plant injury at 15.625 g/ha [5, 13]: 10%
plant injury at 62.5 g/ha [5, 14]: 60%
plant injury at 250 g/ha [5, 15]: 70%
pest or weed control at 15.625 g/ha [6, 13]: 20%
pest or weed control at 62.5 g/ha [6, 14]: 70%
pest or weed control at 250 g/ha [6, 15]: 70%
pest or weed control at 15.625 g/ha ([7]; 15.625 g ai/ha, read-out: Pigweed, Redroot damage rating (100=total damage to plant; 0=no damage to plant)): 0%
pest or weed control at 62.5 g/ha ([7]; 62.5 g ai/ha, 100=total damage to plant, 0=no damage to plant, read-out: Pigweed, Redroot damage rating): 10%
pest or weed control at 250 g/ha ([7]; 250 g ai/ha, read-out: Pigweed, Redroot damage rating (100=total damage to plant; 0=no damage to plant)): 40%
pest or weed control at 15.625 g/ha ([8]; 15.625 g ai/ha, read-out: Barnyardgrass damage rating (100=total damage to plant; 0=no damage to plant)): 10%
pest or weed control at 62.5 g/ha ([8]; 62.5 g ai/ha, 100=total damage to plant, 0=no damage to plant, read-out: Barnyardgrass damage rating): 70%
pest or weed control at 250 g/ha ([8]; 250 g ai/ha, read-out: Barnyardgrass damage rating (100=total damage to plant; 0=no damage to plant)): 70%
pest or weed control at 15.625 g/ha ([9]; 15.625 g ai/ha, read-out: Morningglory, Ivy-leaved damage rating (100=total damage to plant; 0=no damage to plant)): 0%
pest or weed control at 62.5 g/ha ([9]; 62.5 g ai/ha, 100=total damage to plant, 0=no damage to plant, read-out: Morningglory, Ivy-leaved damage rating): 0%
pest or weed control at 250 g/ha ([9]; 250 g ai/ha, read-out: Morningglory, Ivy-leaved damage rating (100=total damage to plant; 0=no damage to plant)): 0%
pest or weed control at 15.625 g/ha ([10]; 15.625 g ai/ha, read-out: Velvetleaf damage rating (100=total damage to plant; 0=no damage to plant)): 0%
pest or weed control at 62.5 g/ha ([10]; 62.5 g ai/ha, 100=total damage to plant, 0=no damage to plant, read-out: Velvetleaf damage rating): 0%
pest or weed control at 250 g/ha ([10]; 250 g ai/ha, read-out: Velvetleaf damage rating (100=total damage to plant; 0=no damage to plant)): 20%
plant injury at 15.625 g/ha ([11]; 15.625 g ai/ha, read-out: Corn damage rating (100=total damage to plant; 0=no damage to plant)): 0%
plant injury at 62.5 g/ha ([11]; 62.5 g ai/ha, 100=total damage to plant, 0=no damage to plant, read-out: Corn damage rating): 70%
plant injury at 250 g/ha ([11]; 250 g ai/ha, read-out: Corn damage rating (100=total damage to plant; 0=no damage to plant)): 80%
pest or weed control at 15.625 g/ha ([12]; 15.625 g ai/ha, read-out: Foxtail, Giant damage rating (100=total damage to plant; 0=no damage to plant)): 50%
pest or weed control at 62.5 g/ha ([12]; 62.5 g ai/ha, 100=total damage to plant, 0=no damage to plant, read-out: Foxtail, Giant damage rating): 90%
pest or weed control at 250 g/ha ([12]; 250 g ai/ha, read-out: Foxtail, Giant damage rating (100=total damage to plant; 0=no damage to plant)): 90%

Reference: patent US12077503B2, “Substituted cyclic amides and their use as herbicides” (FMC CORPORATION, priority 2015, dated 2024)
